In test [1] the test system is NIH 3T3 cells transformed by the T24 activated human H-ras gene. The test is described as follows: Ras-Transformed Cell Phenotype Reversion Assay. It is filed as cell-based, mouse. Particulars: NIH3T3; Table 8; T24 H-ras transformed NIH 3T3 cells; 72 hours; cell counts. From the text: "Ras-Transformed Cell Phenotype Reversion Assay" Insertion of activated oncogenes such as the mutant ras gene into mouse NIH 3T3 cells converts the cells to a transformed phenotype. The cells become tumorigenic, display anchorage independent growth in semi-solid medium and lose contact inhibition. Loss of contact inhibition produces cell cultures which no longer form uniform monolayers. Rather, the cells pile up into multicellular nodules and grow to very high saturation densities in plastic tissue culture dishes. Agents such as protein farnesyl transferase inhibitors which revert the ras transformed phenotype restore the uniform monolayer growth pattern to cells in culture. This reversion is easily monitored by counting the number of cells in tissue culture plates. Transformed cells will achieve higher cell numbers than cells which have reverted to an untransformed phenotype. Compounds which revert the transformed phenotype should produce antitumor effects in tumors bearing ras gene mutations. Method Compounds are screened in tissue culture in NIH 3T3 cells transformed by the T24 activated human H-ras gene. Cells are seeded at an initial density of 200,000 cells per well (9.6 cm^2 surface area) in six-well cluster tissue culture plates. Test compounds are immediately added to 3.0 ml cell growth mediuim in a 3.0 μl volume of DMSO, with a final concentration of DMSO in the cell growth medium of 0.1%. […] Then the cells are detached in 1.0 ml trypsin-EDTA cell dissociation medium and counted on a Coulter particle counter. Measurements Cell numbers expressed as cells per well are measured using a Coulter Particle Counter. All cell counts were corrected for the initial cell input density by subtracting 200,000. Control cell counts=[cell counts from cells incubated with DMSO vehicle--200,000] Test compound cell counts=[cell counts from cells incubated with test compound--200,000]. [formula]

For test [2], the target named is T1, Human farnesyl protein transferase (Homo sapiens, UniProt P49354+P49356).
T1 construct: were used as a source of human enzyme; endogenous in cells; host or cells: Kirsten virus transformed human osteosarcoma (KHOS) cells (ATCC), grown as monolayers or as solid tumors in nude mice; ammonium sulfate fraction and Q Sepharose pool
The test is described as follows: In Vitro Assay for Inhibition of Farnesyl Protein Transferase ([3H] Scintillation Proximity Assay). It is filed as biochemical. The settings on record: Table 7; human enzyme from KHOS cells; biotinylated lamin B peptide substrate; 60 min, 37° C.; read-out: IC50 (concentration of test compound producing 50% inhibition of enzyme activity). The procedure:
In Vitro Assay for Inhibition of Farnesyl Protein Transferase Human farnesyl protein transferase was prepared essentially as described ([…] al., Methods: A Companion to Methods in Enzymology vol 1, 241-245, 1990). Kirsten virus transformed human osteosarcoma (KHOS) cells (American Type Culture Collection, Rockvill, Md., USA) grown as solid tumors in nude mice or grown as monolayer cell cultures were used as a source of human enzyme. Briefly, cells or tumors were homogenized in buffer containing 50 mM Tris, 1 mM EDTA, 1 mM EGTA and 0.2 mM phenylmethylsulfonylfluoride (pH 7.5). The homogenates were centrifuged 28,000× g for 60 min and the supernatants collected. A 30-50% ammonium sulfate […] prepared, and the resulting precipitate was resuspended in a small (10 to 20 ml) volume of dialysis buffer containing 20 mM Tris, 1 mM dithiothreitol and 20 μM ZnCl2. The ammonium sulfate fraction was dialyzed overnight against two changes of the same buffer. The dialyzed material was applied to a 10×1 cm Q Fast Flow Sepharose (Pharmacia LKB Biotechnology Inc., Piscataway, N.J., USA) which had been preequilibrated with 100 ml of dialysis buffer supplemented with 0.05M NaCl. The column was washed with an additional 50 ml of dialysis buffer plus 0.05M NaCl followed by a gradient from 0.05M to 0.25M NaCl prepared in dialysis buffer. The enzyme activity was eluted with a linear gradient of 0.25 to 1.0M NaCl prepared in the dialysis buffer. Fractions containing 4 to 5 ml volumes of column eluate were collected and analyzed for farnesyl protein transferase activity. Fractions with enzyme activity were pooled and supplemented with 100 μM ZnCl2. Enzyme samples were stored frozen at -70° C. The activity of farnesyl protein transferase was measured using the Farnesyl Transferase [^3 H] Scintillation Proximity Assay (Amersham International plc., England) under the conditions specified by the manufacturer. […] The reaction mixture was warmed to 37° C. The enzyme reaction was started by adding 20 μl of diluted human farnesyl protein transferase. […] Reactions were terminated by the addition of STOP/scintillation proximity bead reagent (Amersham). The reaction product [^3 H]-farnesyl-(Cys)-biotin lamin B peptide was captured on the streptavidin linked scintillation proximity bead. The amount of [^3 H]-farnesyl-(Cys)-biotin lamin B peptide synthesized in the presence or absence of test compounds was quantified as cpm by counting on a Wallac Model 1480 Microbeta Liquid Scintillation Counter. The cpm of product was considered to be farnesyl protein transferase activity. The protein farnesyl transferase activity observed in the presence of test compound was normalized to farnesyl transferase activity in the presence of 10% DMSO and expressed as per cent inhibition. […] W. Johnson Pharmaceutical Research Institue (Spring House, Pa., USA) on a VAX computer.
In general terms: Scintillation proximity formats need no separation of bound from free tracer.

As to `CCC(c1ccc(Cl)cc1)(c1ccc2c(c1)c(-c1cccc(Cl)c1)cc(=O)n2C)n1ccnc1` (stereo not drawn) [Compound 63], the IC50 in test [1] was determined as 294 nM; in test [2], 30 nM.
Take `Cc1cncn1C(C)(c1ccc(Cl)cc1)c1ccc2c(c1)c(-c1cccc(Cl)c1)cc(=O)n2C` (stereo not drawn) [Compound 64, 4-(3-chlorophenyl)-6-[1-(4-chlorophenyl)-1-(5-methyl-1H-imidazol-1-yl)ethyl]-1-methyl-2(1H)-quinolinone]: the IC50 is 133 nM in test [1] and 11 nM in test [2].
Taken in the same sequence, the figures for `O=c1cc(-c2cccc(Cl)c2)c2cc(C(c3ccc(Cl)cc3)n3ccnc3)ccc2[nH]1` (single isomer, unassigned) [Compound 23] were 204 nM and 15 nM.
In the case of `Cn1c(=O)cc(-c2cccc(Cl)c2)c2cc(C(CO)(c3ccc(Cl)cc3)n3ccnc3)ccc21` (stereo not drawn) [Compound 66], the IC50 in test [1] was 53 nM; in test [2] it was 5.6 nM.
Turning to `Cn1c(=O)cc(-c2ccc3c(c2)OCO3)c2cc(C(c3ccc(Cl)cc3)n3ccnc3)ccc21` (stereo not drawn) [Compound 83, 6-[(4-chlorophenyl)(1H-imidazol-1-yl)methyl]-4-(1,3-benzodioxol-5-yl)-1-methyl-2(1H)-quinolinone ethanedioate (1:1)], the IC50 was found to be 68 nM in test [1] and 3.4 nM in test [2].
Take `CCCOc1cccc(-c2cc(=O)n(C)c3ccc(C(c4ccc(Cl)cc4)n4ccnc4)cc23)c1` (racemic) [Compound 74, (±)-6-[(4-chlorophenyl)-1H-imidazol-1-ylmethyl]-1-methyl-4-(3-propoxyphenyl)-2(1H)-quinolinone ethanedioate (2:3).sesquihydrate]: the IC50 in test [1] worked out at 500 nM.
On the same count and under the same terms, in the case of `CSCC(c1ccc(Cl)cc1)(c1ccc2c(c1)c(-c1cccc(Cl)c1)cc(=O)n2C)n1ccnc1` (stereo not drawn) [Compound 69] it was 500 nM.
With `COCCn1c(=O)cc(-c2cccc(Cl)c2)c2cc(C(c3ccc(Cl)cc3)n3ccnc3)ccc21` (stereo not drawn) [Compound 77, 4-(3-chlorophenyl)-6-[(4-chlorophenyl)(1H-imidazol-1-yl)methyl]-1-(2-methoxyethyl)-2(1H)-quinolinone ethanedioate (2:3) monohydrate], the IC50 was 189 nM in test [1] and 7.2 nM in test [2].
The molecule `COCC(c1ccc(Cl)cc1)(c1ccc2c(c1)c(-c1cccc(Cl)c1)cc(=O)n2C)n1ccnc1` (stereo not drawn) [Compound 67] showed an IC50 in test [1] of 114 nM.
